Data: patent US4770705A, “Salts of alkyl-2-benzimidazole-carbamate and fungicidal compositions thereof suitable for paints and plaster” (Schulke & Mayr GmbH, priority 1986, dated 1988)

What was measured:
[1] = test system: Aspergillus niger; assay: Test Method A: fungus formation on treated paint/plaster discs, Aspergillus niger; assay type: cell-based
Experimental: (§1) The biological effectiveness of a product according to Example 1 was tested both in an aqueous acrylate paint and in an aqueous plaster dispersion as follows:
(§2) To 50 grams of a usual acrylic paint (for composition see Table I) and of a plaster (for composition see Table II) composition to be tested, the fungicidal compound of Example 1 was added in different concentrations. After extensive stirring, the samples were coated on a sheet of pasteboard and dried for 24 hours at room temperature and for an additional 24 hours at 40° C. These paper samples were then subjected for 72 hours to a water sprayout test whereby 1 liter of water per minute was flushed over the paper supports. After drying for 24 hours at room temperature and for 24 hours at 40° C., the test samples were irradiated for 24 hours with ultraviolet light. Test discs having a diameter of 50 mm were cut from the pasteboard and sterilized with ethylene oxide.
(§3) Sabouraud-plates were seeded with a 0.2 ml suspension of either Aspergillus niger or Alternaria containing about 10^7 germs per ml. The test discs were put onto the plates and incubated at a temperature of 25° to 27° C. for a period of 3 weeks. After a period of 1 or 2 or 3 weeks, respectively, the contamination was rated as follows:
(§4) 1=very small fungus formation (0-5% of the entire surface)
(§5) 2=weak fungus formation (5-25% of the entire surface)
(§6) 3=medium fungus formation (25 to 50% of the entire surface)
(§7) 4=strong fungus formation (50-99% of the entire surface)
(§8) 5=no inhibition of fungus formation.
(§9) A known tetradecane-sulfonic acid adduct of 2-methoxycarbonylaminobenzimidazole (BCM), CARBENDASULF (Hoechst AG, Frankfurt/Main, Germany; prepared according to Example 1 of U.S. Pat. No. 4,046,906), was used for comparison.

[2] = test system: Alternaria; assay: Test Method A: fungus formation on treated paint/plaster discs, Alternaria; assay type: cell-based
Experimental: as §1, §2, §3, §4, §5, §6, §7, §8, §9

[3] = acrylic dispersion paint, conc. 0.01%, 1 week
[4] = acrylic dispersion paint, conc. 0.01%, 2 weeks
[5] = acrylic dispersion paint, conc. 0.01%, 3 weeks
[6] = acrylic dispersion paint, conc. 0.02%, 1 week
[7] = acrylic dispersion paint, conc. 0.02%, 2 weeks
[8] = acrylic dispersion paint, conc. 0.02%, 3 weeks
[9] = acrylic dispersion paint, conc. 0.05%, 1 week
[10] = acrylic dispersion paint, conc. 0.05%, 2 weeks
[11] = acrylic dispersion paint, conc. 0.05%, 3 weeks

## COC(=O)Nc1nc2ccccc2[nH]1 [CARBENDASULF, tetradecane-sulfonic acid adduct of 2-methoxycarbonylaminobenzimidazole (BCM)]
[1]; [3]
  contamination rating (fungus formation): 3 (medium fungus formation (25 to 50% of the entire surface))
[1]; [4]
  contamination rating (fungus formation): 3 (medium fungus formation (25 to 50% of the entire surface))
[1]; [5]
  contamination rating (fungus formation): 4 (strong fungus formation (50-99% of the entire surface))
[1]; [6]
  contamination rating (fungus formation): 2 (weak fungus formation (5-25% of the entire surface))
[1]; [7]
  contamination rating (fungus formation): 2 (weak fungus formation (5-25% of the entire surface))
[1]; [8]
  contamination rating (fungus formation): 3 (medium fungus formation (25 to 50% of the entire surface))
[1]; [9]
  contamination rating (fungus formation): 1 (very small fungus formation (0-5% of the entire surface))
[1]; [10]
  contamination rating (fungus formation): 1 (very small fungus formation (0-5% of the entire surface))
[1]; [11]
  contamination rating (fungus formation): 2 (weak fungus formation (5-25% of the entire surface))
[1]; plaster, conc. 0.01%, 1 week
  contamination rating (fungus formation): 2 (weak fungus formation (5-25% of the entire surface))
[1]; plaster, conc. 0.01%, 2 weeks
  contamination rating (fungus formation): 3 (medium fungus formation (25 to 50% of the entire surface))
[1]; plaster, conc. 0.01%, 3 weeks
  contamination rating (fungus formation): 3 (medium fungus formation (25 to 50% of the entire surface))
[1]; plaster, conc. 0.02%, 1 week
  contamination rating (fungus formation): 1 (very small fungus formation (0-5% of the entire surface))
[1]; plaster, conc. 0.02%, 2 weeks
  contamination rating (fungus formation): 2 (weak fungus formation (5-25% of the entire surface))
[1]; plaster, conc. 0.02%, 3 weeks
  contamination rating (fungus formation): 3 (medium fungus formation (25 to 50% of the entire surface))
[1]; plaster, conc. 0.05%, 1 week
  contamination rating (fungus formation): 1 (very small fungus formation (0-5% of the entire surface))
[1]; plaster, conc. 0.05%, 2 weeks
  contamination rating (fungus formation): 1 (very small fungus formation (0-5% of the entire surface))
[1]; plaster, conc. 0.05%, 3 weeks
  contamination rating (fungus formation): 2 (weak fungus formation (5-25% of the entire surface))
[2]; [3]
  contamination rating (fungus formation): 3 (medium fungus formation (25 to 50% of the entire surface))
[2]; [4]
  contamination rating (fungus formation): 3 (medium fungus formation (25 to 50% of the entire surface))
[2]; [5]
  contamination rating (fungus formation): 4 (strong fungus formation (50-99% of the entire surface))
[2]; [6]
  contamination rating (fungus formation): 2 (weak fungus formation (5-25% of the entire surface))
[2]; [7]
  contamination rating (fungus formation): 2 (weak fungus formation (5-25% of the entire surface))
[2]; [8]
  contamination rating (fungus formation): 3 (medium fungus formation (25 to 50% of the entire surface))
[2]; [9]
  contamination rating (fungus formation): 1 (very small fungus formation (0-5% of the entire surface))
[2]; [10]
  contamination rating (fungus formation): 2 (weak fungus formation (5-25% of the entire surface))
[2]; [11]
  contamination rating (fungus formation): 2 (weak fungus formation (5-25% of the entire surface))
[2]; plaster, conc. 0.01%, 1 week
  contamination rating (fungus formation): 2 (weak fungus formation (5-25% of the entire surface))
[2]; plaster, conc. 0.01%, 2 weeks
  contamination rating (fungus formation): 3 (medium fungus formation (25 to 50% of the entire surface))
[2]; plaster, conc. 0.01%, 3 weeks
  contamination rating (fungus formation): 4 (strong fungus formation (50-99% of the entire surface))
[2]; plaster, conc. 0.02%, 1 week
  contamination rating (fungus formation): 1 (very small fungus formation (0-5% of the entire surface))
[2]; plaster, conc. 0.02%, 2 weeks
  contamination rating (fungus formation): 2 (weak fungus formation (5-25% of the entire surface))
[2]; plaster, conc. 0.02%, 3 weeks
  contamination rating (fungus formation): 4 (strong fungus formation (50-99% of the entire surface))
[2]; plaster, conc. 0.05%, 1 week
  contamination rating (fungus formation): 1 (very small fungus formation (0-5% of the entire surface))
[2]; plaster, conc. 0.05%, 2 weeks
  contamination rating (fungus formation): 2 (weak fungus formation (5-25% of the entire surface))
[2]; plaster, conc. 0.05%, 3 weeks
  contamination rating (fungus formation): 2 (weak fungus formation (5-25% of the entire surface))
